The subject of assay [1] is TNFα triggered MMP13 release in SW1353 cells. Briefly: SW1353 cellular selectivity assay, TNFα trigger, MMP13 readout. It is filed as cell-based, human. The following applies: TNFα trigger 10 ng/mL; for IC50: Homo sapiens; for TNFα trigger MMP13 PIN at 20 μM: percent inhibition at 20 μM compound. The text has this: (§1) The aim of this assay is to evaluate the selectivity of compounds of the invention for the activated TLR/IRAK-4 pathway in an in vitro human cellular assay setting. SW1353 cells are from a chondrocytic cell line and are responsive to both the interleukin 1 (IL-1) and the TNFα cytokine triggers. Both cytokine triggers induce the expression of interleukin 6 (IL-6) and MMP13 by these cells. IL-6 and MMP13 releases are used as readouts in this assay and represent a measure for the level of inhibition of the TLR/IRAK-4 pathway by the tested compound.
(§2) SW1353 cells are cultured in DMEM supplemented with 10% FBS and 1% Penicillin/Streptomycin. Cells are incubated at 37° C. in a humidified atmosphere of 5% CO2 and subcultured twice a week. During subculturing, trypsin-EDTA is used to detach the cells, followed by a neutralization step with cell culture medium. After centrifugation (1,000 rpm during 5 min), the pellet is resuspended in cell culture medium and cells are counted using an automated cell counter (Invitrogen Countess™).
(§3) Cells are used at passage 16 and plated at a density of 15,000 cells per well in 120 μL cell culture medium in 96-well culture plates. Cells are allowed to attach during overnight incubation.
(§4) SW1353 cells are pre-incubated with test compound by addition of 15 μL of 10× concentrated compound solution for 2 h at 37° C. and 5% CO2. The compounds are tested at different concentrations and prepared by 3-fold serial dilutions from the 10 mM stock solution in DMSO followed by a 1/50 dilution step in cell culture medium. Final test concentrations in the assay start from 20 μM, with subsequent 3-fold serial dilutions with equal final DMSO concentrations of 0.2%. After the compound pre-incubation step, the SW1353 cells are triggered by addition of 15 μL of 10× concentrated IL-1f (Peprotech, 200-01B) or TNFα trigger (Peprotech, 300-01A) to the wells with final assay volume of 150 μL per well and final trigger concentration of 1 ng/mL and 10 ng/mL, respectively. Negative controls are adjusted with equal DMSO concentrations without trigger. The assay plates are then incubated in a humidified incubator at 37° C. and 5% CO2. Cell supernatants are harvested 24 h and 48 h later by transferring the cell medium into a V-bottom polypropylene 96-well plate and stored at −80° C. until ELISA readout.
(§5) The levels of secreted MMP13 in the cell supernatants are quantified in an antibody capture activity assay. […] After incubation for 1 h at 37° C., fluorescence of the converted substrate is measured with a PerkinElmer EnVision® (excitation wavelength: 320 nm, emission wavelength: 405 nm).
(§6) All controls are measured within the linear range of the human IL-6 and MMP13 standard curve of the ELISA. […]

In assay [2] the test system is IL-1β triggered MMP13 release in SW1353 cells. Briefly: SW1353 cellular selectivity assay, IL-1β trigger, MMP13 readout. It is filed as cell-based, human. The following applies: IL-1β trigger 1 ng/mL; for IC50: Homo sapiens; for IL-1β trigger MMP13 PIN at 20 μM: percent inhibition at 20 μM compound.
Description: as §1, §2, §3, §4, §5, §6

The target in assay [3] is T1, GSK3b (Homo sapiens, UniProt P49841).
T1 construct: purchased Carna Biosciences 04-141
T1 sequence (P49841 whole entry): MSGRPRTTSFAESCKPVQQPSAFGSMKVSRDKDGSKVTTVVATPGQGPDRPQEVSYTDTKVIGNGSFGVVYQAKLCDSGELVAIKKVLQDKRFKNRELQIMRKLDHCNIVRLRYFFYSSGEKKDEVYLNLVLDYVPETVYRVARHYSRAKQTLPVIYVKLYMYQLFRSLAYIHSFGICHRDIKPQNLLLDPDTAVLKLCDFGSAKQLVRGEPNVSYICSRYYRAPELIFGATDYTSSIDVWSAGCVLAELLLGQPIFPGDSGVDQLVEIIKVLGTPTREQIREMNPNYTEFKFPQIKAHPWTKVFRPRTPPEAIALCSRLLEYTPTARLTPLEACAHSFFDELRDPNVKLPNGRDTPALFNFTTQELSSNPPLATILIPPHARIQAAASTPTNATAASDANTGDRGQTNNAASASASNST
Briefly: Kinase selectivity profiling (focused panel), radioactive filter plate assay: GSK3b. It is filed as biochemical. The following applies: Phospho glycogen synthase peptide2, 1.5 μM ATP, 90 min. On the procedure: The purpose of this assay is to determine the activity and selectivity of a compound of the invention on a selected range of human kinases which may result in undesirable side-effects when inhibited (Dy & Adjei 2013; Force & Kolaja 2011).
The IC50 value for off-target kinases is determined in radioactive filter plate assays. The principle of the assays consists in the measurement of incorporated ^33P into a peptide substrate upon phosphorylation by the kinase enzyme using [γ-^33P]ATP and ATP. Unincorporated ^33P is removed by loading the samples on a filter plate (using a harvester, PerkinElmer) and 6 subsequent washing steps. Incorporated ^33P in the peptide substrate is measured by a scintillation counter (Topcount, PerkinElmer) after addition of MicroScint™-20 (PerkinElmer, 6013621) to the filter plates.
5 μL of a water dilution series of test compound (starting from 20 μM or 6.6 μM highest concentration), from a 100% DMSO stock solution, 1/5 dilution, is added to the wells (final DMSO concentration of 1% in reaction assay). Enzyme and peptide substrate are used at optimized concentrations (cf. Table VI). The enzyme and substrate are diluted in assay buffer to a total volume of 11 μL. The reaction is started by addition of 9 μL of ATP+[γ-^33P]ATP, diluted in the same buffer as enzyme and substrate. The mixture is incubated at 30° C. The reaction is terminated by adding 25 μL of 150 mM phosphoric acid. Samples are transferred to filter plates and incorporated radioactivity is measured using a scintillation counter.
The incubation time, assay buffer composition, and concentrations of ATP, enzyme and substrate are reported in Table VI for example kinase off-target assays.
10 μM staurosporine (1% DMSO) is used as positive control (100% inhibition); vehicle (water+1% DMSO) as negative control (0% inhibition).

The IC50 is the concentration at which inhibition is half-maximal.

For the compound `C[C@]1(O)CC[C@@H](Nc2nc3c(cc2OCCOCCO)ncn3-c2ccc(C#N)cn2)CC1` [Compound 12, 6-[6-[2-(2-hydroxyethoxy)ethoxy]-5-[((cis-1,4)-4-hydroxy-4-methylcyclohexyl)amino]imidazo[4,5-b]pyridin-3-yl]pyridine-3-carbonitrile], in assay [1], the IC50 is above 20000 nM and the “TNFα trigger MMP13 PIN at 20 μM” value is “[36%]”. For the same compound, in assay [2], the IC50 came to 29 nM and the “IL-1β trigger MMP13 PIN at 20 μM” value was “[75%]”. Also, the IC50 in assay [3] was above 1330 nM.
The like results for `N#Cc1ccc(-n2cnc3cc(OCCOCCO)c(NC4CCOCC4)nc32)nc1` [Compound 1, 6-[6-[2-(2-hydroxy-ethoxy)-ethoxy]-5-(tetrahydro-pyran-4-ylamino)-imidazo[4,5-b]pyridin-3-yl]-nicotinonitrile] were, in that order, above 20000 nM, “[26%]”, 36 nM, “[81%]” and above 6670 nM.

Values taken from patent US10508111B2, “6-[5-amino-6-(2-ethoxyethoxy)-imidazo[4,5-B]pyridin-3-yl]-nicotinonitrile derivatives and their use as IRAK inhibitors” (GALAPAGOS NV, priority 2015, dated 2019).
